Measurements taken from ChEMBL document CHEMBL1165964, “Design and synthesis of spirotryprostatin-inspired diketopiperazine systems from prolyl spirooxoindolethiazolidine derivatives” (Bioorg Med Chem, 2010).
Active and inactive are the calls of the source. The rule behind the calls is not given here.

Key:
Assay type in all cases: functional, cell-based
MCF7 [1] = assay: Cell cycle arrest in human MCF7 cells
MCF7 [2] = assay: Cytotoxicity against human MCF7 cells at 100 uM after 48 hrs by MTT assay
T47D = assay: Cytotoxicity against human T47D cells at 100 uM after 48 hrs by MTT assay
A-431 = assay: Cytotoxicity against human A431 cells at 100 uM after 48 hrs by MTT assay
MCF7 [3] = assay: Cytotoxicity against human MCF7 cells after 48 hrs by MTT assay; conditions: MCF7, 48 h
[4] = Cell cycle arrest in mouse tsFT210 cells assessed as accumulation of cells at G2/M phase

IC50 [4] [µM] | SMILES | Activity (MCF7 [1]) | Activity (MCF7 [2]) | Activity (T47D) | Activity (A-431) | IC50 (MCF7 [3]) [µM]
– | O=C1[C@@H]2CS[C@@]3(C(=O)Nc4ccc(Br)cc43)N2C(=O)[C@@H]2CCCN12 | inactive | inactive | inactive | inactive | –
– | CN1C(=O)[C@]2(SC[C@H]3C(=O)N4CCC[C@H]4C(=O)N32)c2ccccc21 | inactive | inactive | inactive | inactive | –
– | O=C1[C@@H]2CS[C@@]3(C(=O)Nc4ccccc43)N2C(=O)[C@@H]2CCCN12 | inactive | inactive | inactive | inactive | –
– | CCOC(=O)[C@@]1(c2ccccc2N)SC[C@H]2C(=O)N3CCC[C@H]3C(=O)N21 | – | – | – | – | 14.8
198 | COc1ccc2c(c1)NC(=O)[C@@]21C[C@H]2C(=O)N3CCC[C@H]3C(=O)N2[C@H]1C=C(C)C [SPIROTRYPROSTATIN A] | – | – | – | – | –
– | O=C1[C@@H]2CS[C@]3(C(=O)Nc4ccc(Br)cc43)N2C(=O)[C@@H]2CCCN12 | inactive | inactive | inactive | inactive | –
– | CN1C(=O)[C@@]2(SC[C@H]3C(=O)N4CCC[C@H]4C(=O)N32)c2ccccc21 | inactive | inactive | inactive | inactive | –
– | O=C1[C@@H]2CS[C@]3(C(=O)Nc4ccccc43)N2C(=O)[C@@H]2CCCN12 | inactive | inactive | inactive | inactive | –
– | Cc1ccc2c(c1)[C@]1(SC[C@H]3C(=O)N4CCC[C@H]4C(=O)N31)C(=O)N2 | inactive | inactive | inactive | inactive | –
– | CCOC(=O)[C@@]1(c2cc(Br)ccc2N)SC[C@H]2C(=O)N3CCC[C@H]3C(=O)N21 | – | – | – | – | 2.2
– | Cc1ccc2c(c1)[C@@]1(SC[C@H]3C(=O)N4CCC[C@H]4C(=O)N31)C(=O)N2 | inactive | inactive | inactive | inactive | –
– | CCOC(=O)[C@@]1(c2cc(C)ccc2N)SC[C@H]2C(=O)N3CCC[C@H]3C(=O)N21 | – | – | – | – | 1.6
